In patent US11840686B2, “Modulation of prekallikrein (PKK) expression” (Ionis Pharmaceuticals, Inc., priority 2013, dated 2023):
Strand notation (5' to 3'): a small letter for the sugar, then the base; units joined by * are phosphorothioate-linked, units joined directly phosphodiester-linked; [ ] holds rarer units or linkages, { } end groups; capitals alone tell only the bases. e = 2'-O-(2-methoxyethyl) (MOE); [5mC] = 5-methylcytosine; d = 2'-deoxy (DNA)

Tests used:
human PKK mRNA [1] = assay: Dose-dependent antisense inhibition of human PKK in HepaRG cells, 0.19-5.00 uM (Example 5); format: cell-based
Method in brief: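 PKK mRNA knockdown was measured by real-time PCR (primer probe set RTS3454) about 16 h after electroporating 20,000 HepaRG cells per well with oligonucleotide at four doses from 0.19 to 5.00 μM. Levels were adjusted to RIBOGREEN-measured total RNA, and IC50 values were calculated.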

human PKK mRNA [2] = assay: Antisense inhibition of human PKK mRNA in HepaRG cells, 5,000 nM (Example 2); format: cell-based; conditions: HepaRG cells, electroporation with 5,000 nM antisense oligonucleotide, approx. 24 hours, PKK mRNA by RT-PCR (RTS3454), relative to untreated control cells
Method in brief: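 Chimeric MOE gapmers with full phosphorothioate backbones were tested once at 5,000 nM in electroporated HepaRG cells. After about 24 hours, quantitative PCR measured PKK mRNA relative to untreated control cells.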

[3] = HepaRG cells, electroporation, approximately 16 hours, Table 36
[4] = 4 point dose response, HepaRG cells, Table 36
[5] = HepaRG cells, electroporation, approximately 16 hours, Table 39
[6] = HepaRG cells, electroporation, approximately 16 hours, Table 37
[7] = HepaRG cells, electroporation, approximately 16 hours, Table 40
[8] = Table 34, HepaRG, electroporation, ~16 h
[9] = Table 34, PKK mRNA, HepaRG, electroporation, ~16 h

547364 (eG*eA*eA*e[5mC]*e[5mC]*d[5mC]*dT*dG*dG*d[5mC]*dA*dA*d[5mC]*dA*dT*e[5mC]*e[5mC]*eA*e[5mC]*eA; antisense) [compound 547364]
percent inhibition of PKK at 0.19 μM (human PKK mRNA [1]; [3]): 38%
percent inhibition of PKK at 0.56 μM (human PKK mRNA [1]; [3]): 47%
percent inhibition of PKK at 1.67 μM (human PKK mRNA [1]; [3]): 54%
percent inhibition of PKK at 5.00 μM (human PKK mRNA [1]; [3]): 89%
IC50 (human PKK mRNA [1]; [4]): 600 nM
% inhibition (human PKK mRNA [2]; Table 7): 92%

547366 (eG*eG*eA*eG*eT*dG*dA*dG*dA*dA*d[5mC]*d[5mC]*d[5mC]*dT*dG*eG*e[5mC]*eA*eA*e[5mC]; antisense) [compound 547366]
percent inhibition of PKK at 0.19 μM (human PKK mRNA [1]; [5]): 0%
percent inhibition of PKK at 0.56 μM (human PKK mRNA [1]; [5]): 45%
percent inhibition of PKK at 1.67 μM (human PKK mRNA [1]; [5]): 68%
percent inhibition of PKK at 5.00 μM (human PKK mRNA [1]; [5]): 91%
IC50 (human PKK mRNA [1]; 4 point dose response, HepaRG cells, Table 39): 1200 nM
% inhibition (human PKK mRNA [2]; Table 7): 86%

547368 (eG*e[5mC]*eA*eT*e[5mC]*dT*dG*dG*dA*dG*dT*dG*dA*dG*dA*eA*e[5mC]*e[5mC]*e[5mC]*eT; antisense) [compound 547368]
percent inhibition of PKK at 0.19 μM (human PKK mRNA [1]; [6]): 0%
percent inhibition of PKK at 0.56 μM (human PKK mRNA [1]; [6]): 0%
percent inhibition of PKK at 1.67 μM (human PKK mRNA [1]; [6]): 31%
percent inhibition of PKK at 5.00 μM (human PKK mRNA [1]; [6]): 80%
IC50 (human PKK mRNA [1]; 4 point dose response, HepaRG cells, Table 37): 2500 nM
% inhibition (human PKK mRNA [2]; Table 7): 89%

547373 (eG*e[5mC]*eA*eG*eA*dT*dG*dG*dT*d[5mC]*d[5mC]*dG*dA*d[5mC]*dA*e[5mC]*eA*e[5mC]*eA*eA; antisense) [compound 547373]
percent inhibition of PKK at 0.19 μM (human PKK mRNA [1]; [3]): 20%
percent inhibition of PKK at 0.56 μM (human PKK mRNA [1]; [3]): 7%
percent inhibition of PKK at 1.67 μM (human PKK mRNA [1]; [3]): 49%
percent inhibition of PKK at 5.00 μM (human PKK mRNA [1]; [3]): 86%
IC50 (human PKK mRNA [1]; [4]): 1100 nM
% inhibition (human PKK mRNA [2]; Table 7): 90%

547374 (eG*eA*eT*eA*eG*dG*dT*dG*d[5mC]*dA*dG*dA*dT*dG*dG*eT*e[5mC]*e[5mC]*eG*eA; antisense) [compound 547374]
percent inhibition of PKK at 0.19 μM (human PKK mRNA [1]; [7]): 0%
percent inhibition of PKK at 0.56 μM (human PKK mRNA [1]; [7]): 15%
percent inhibition of PKK at 1.67 μM (human PKK mRNA [1]; [7]): 24%
percent inhibition of PKK at 5.00 μM (human PKK mRNA [1]; [7]): 44%
IC50 (human PKK mRNA [1]; 4 point dose response, HepaRG cells, Table 40): > 5000 nM
% inhibition (human PKK mRNA [2]; Table 7): 81%

547413 (eG*eT*eG*eA*eA*dA*dA*dA*d[5mC]*dT*dG*dA*d[5mC]*dA*dG*e[5mC]*eG*eA*eA*eT; antisense) [compound 547413]
percent inhibition of PKK at 0.19 μM (human PKK mRNA [1]; [8]): 0%
percent inhibition of PKK at 0.56 μM (human PKK mRNA [1]; [8]): 0%
percent inhibition of PKK at 1.67 μM (human PKK mRNA [1]; [8]): 41%
percent inhibition of PKK at 5.00 μM (human PKK mRNA [1]; [8]): 83%
IC50 (human PKK mRNA [1]; [9]): 2200 nM
% inhibition (human PKK mRNA [2]; Table 8): 94%

547423 (e[5mC]*e[5mC]*e[5mC]*eT*eT*dG*dT*dG*dT*d[5mC]*d[5mC]*d[5mC]*dA*dT*dA*e[5mC]*eG*e[5mC]*eA*eA; antisense) [compound 547423]
percent inhibition of PKK at 0.19 0μM (human PKK mRNA [1]; 0.19 0μM, HepaRG cells, electroporation, approximately 16 hours, Table 41): 78%
percent inhibition of PKK at 0.56 0μM (human PKK mRNA [1]; 0.56 0μM, HepaRG cells, electroporation, approximately 16 hours, Table 41): 92%
IC50 (human PKK mRNA [1]; 4 point dose response, HepaRG cells, Table 41): < 200 nM
percent inhibition of PKK at 0.19 μM (human PKK mRNA [1]; [8]): 37%
percent inhibition of PKK at 0.56 μM (human PKK mRNA [1]; [8]): 50%
percent inhibition of PKK at 1.67 μM (human PKK mRNA [1]; [8]): 92%
percent inhibition of PKK at 5.00 μM (human PKK mRNA [1]; [8]): 90%
IC50 (human PKK mRNA [1]; [9]): 400 nM
% inhibition (human PKK mRNA [2]; Table 8): 95%

547426 (eG*eA*eG*eT*eA*dA*d[5mC]*d[5mC]*dA*dG*dA*dG*d[5mC]*dT*d[5mC]*e[5mC]*e[5mC]*eT*eT*eG; antisense) [compound 547426]
percent inhibition of PKK at 0.19 μM (human PKK mRNA [1]; [3]): 19%
percent inhibition of PKK at 0.56 μM (human PKK mRNA [1]; [3]): 50%
percent inhibition of PKK at 1.67 μM (human PKK mRNA [1]; [3]): 84%
percent inhibition of PKK at 5.00 μM (human PKK mRNA [1]; [3]): 93%
IC50 (human PKK mRNA [1]; [4]): 600 nM
percent inhibition of PKK mRNA, 0.19 μM (human PKK mRNA [1]; HepaRG cells, 0.19 μM antisense oligonucleotide): 18%
percent inhibition of PKK mRNA, 0.56 μM (human PKK mRNA [1]; HepaRG cells, 0.56 μM antisense oligonucleotide): 35%
percent inhibition of PKK mRNA, 1.67 μM (human PKK mRNA [1]; HepaRG cells, 1.67 μM antisense oligonucleotide): 80%
percent inhibition of PKK mRNA, 5.00 μM (human PKK mRNA [1]; HepaRG cells, 5.00 μM antisense oligonucleotide): 95%
IC50 (human PKK mRNA [1]; HepaRG cells, 0.19-5.00 μM): 700 nM
% inhibition (human PKK mRNA [2]; Table 8): 92%
